Among the data in patent US10640497B2, “Microbiocidal oxadiazole derivatives” (SYNGENTA PARTICIPATIONS AG, priority 2015, dated 2020) are pest or weed control, melting point and inhibition of growth values, retold here.

The test system of data set [1] is Puccinia recondita f. sp. tritici. The data set can be described thus: Fungicidal activity against Puccinia recondita f. sp. tritici, wheat, leaf disc curative (brown rust). To be noted: foliar, 144 h, wheat leaf segments, curative (applied 1 day after inoculation), 6-8 days after application, compared to untreated control. In kind it is in vivo. A digest of the protocol:
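Wheat cv. Kanzler leaf segments on agar, inoculated with brown rust spores and kept dark at 19 °C, 75% rh; formulated compound sprayed 1 day after inoculation (curative). Incubated 19 °C, 75% rh, 12 h light/dark; percent disease control vs untreated scored 6–8 days after application.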

The test system is the same in data set [2]. The data set can be described thus: Fungicidal activity against Puccinia recondita f. sp. tritici, wheat, leaf disc preventative (brown rust). To be noted: foliar, wheat leaf segments, preventative (inoculated 1 day after application), 7-9 days after application, compared to untreated control. The format is in vivo. A digest of the protocol: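 Wheat cv. Kanzler leaf segments on water agar sprayed with compound (DMSO stock diluted in water), then inoculated with spore suspension 1 day later. Incubated at 19 °C, 75% rh, 12 h light/12 h dark; percent disease control versus untreated scored at 7-9 days after application.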

In data set [3] the test system is Glomerella lagenarium (Colletotrichum lagenarium). The data set can be described thus: Fungicidal activity against Glomerella lagenarium (Colletotrichum lagenarium), liquid culture, cucumber, preventative (anthracnose). In kind it is cell-based. As to conditions: Colletotrichum orbiculare, liquid culture (PDB), growth inhibition measured photometrically 3-4 days after application, compared to untreated control. A digest of the protocol:
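Glomerella lagenarium conidia in potato dextrose broth were exposed in 96-well plates to test compound diluted from DMSO stock with 0.025% Tween20 and incubated at 24 °C. Growth inhibition was read photometrically 3–4 days after application, as percent activity relative to untreated check.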

The subject of a further data set is Phakopsora pachyrhizi. The data set can be described thus: Fungicidal activity against Phakopsora pachyrhizi, soybean, leaf disc preventative (Asian soybean rust). In kind it is in vivo. To be noted: foliar, 288 h, 12-14 days after application, compared to untreated control. A digest of the protocol: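 Soybean leaf discs on water agar were sprayed with compound diluted in water, then inoculated one day later with a spore suspension on the lower leaf surface. After 24-36 h dark at 20 °C, 75% rh, discs were held at 20 °C, 12 h light/day. Percent disease control versus untreated assessed 12-14 days post-application.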

Molecules are shown by their SMILES.

Compound `CS(=O)(=O)N1CCN(Cc2ccc(-c3noc(C(F)(F)F)n3)cc2)C(=O)C1` [Compound A-41, 4-methylsulfonyl-1-[[4-[5-(trifluoromethyl)-1,2,4-oxadiazol-3-yl]phenyl]methyl]piperazin-2-one] yielded a melting point of 155 to 160 °C. This compound also registered a pest or weed control at 200 ppm in data set [1] of no less than 80%. Also, in data set [2], the pest or weed control at 200 ppm was no less than 80%. For the same compound, in data set [3], the inhibition of growth at 20 ppm was no less than 80%. Besides, the pest or weed control at 200 ppm in the data set with Phakopsora pachyrhizi is no less than 80%.

On to `O=C1CCCC(=O)N1Cc1ccc(-c2noc(C(F)(F)F)n2)cc1` [Compound A-49, 1-[[4-[5-(trifluoromethyl)-1,2,4-oxadiazol-3-yl]phenyl]methyl]piperidine-2,6-dione], for which the melting point is 104 to 108 °C. The compound further yielded a pest or weed control at 200 ppm in data set [1] of no less than 80%. In data set [2], the pest or weed control at 200 ppm is no less than 80%. The same compound showed an inhibition of growth at 20 ppm in data set [3] of no less than 80%. The pest or weed control at 200 ppm in the data set with Phakopsora pachyrhizi was no less than 80%.

With `O=C1CCC(=O)N1Cc1ccc(-c2noc(C(F)(F)F)n2)cc1` [Compound A-51, 1-[[4-[5-(trifluoromethyl)-1,2,4-oxadiazol-3-yl]phenyl]methyl]pyrrolidine-2,5-dione], the melting point lay within 113 to 117 °C. The compound also had a pest or weed control at 200 ppm in data set [1] of no less than 80%. Moreover, the pest or weed control at 200 ppm in data set [2] is no less than 80%. Further, the inhibition of growth at 20 ppm in data set [3] was no less than 80%. The pest or weed control at 200 ppm in the data set on Phakopsora pachyrhizi was no less than 80%.

The compound `CC1(C)CCCN(Cc2ccc(-c3noc(C(F)(F)F)n3)c(F)c2)C1=O` [Compound A-54, 1-[[3-fluoro-4-[5-(trifluoromethyl)-1,2,4-oxadiazol-3-yl]phenyl]methyl]-3,3-dimethyl-piperidin-2-one] gave a melting point of 69 to 73 °C. For the same compound, the pest or weed control at 200 ppm in data set [1] is no less than 80%. The pest or weed control at 200 ppm in data set [2] is no less than 80%. Further, the inhibition of growth at 20 ppm in data set [3] was no less than 80%. The pest or weed control at 200 ppm in the data set on Phakopsora pachyrhizi is no less than 80%.

`CC(=O)N1CC(=O)N(Cc2ccc(-c3noc(C(F)(F)F)n3)cc2)C(=O)C1` [Compound A-55, 4-acetyl-1-[[4-[5-(trifluoromethyl)-1,2,4-oxadiazol-3-yl]phenyl]methyl]piperazine-2,6-dione] displayed a melting point of 111 to 114 °C. In data set [1], the pest or weed control at 200 ppm was no less than 80%. Further, the pest or weed control at 200 ppm in data set [2] is no less than 80%. This compound came in with an inhibition of growth at 20 ppm in data set [3] of no less than 80%. Also, in the data set with Phakopsora pachyrhizi, the pest or weed control at 200 ppm is no less than 80%.

Compound `CN(C)C(=O)N1CC(=O)N(Cc2ccc(-c3noc(C(F)(F)F)n3)cc2)C(=O)C1` [Compound A-56, N,N-dimethyl-3,5-dioxo-4-[[4-[5-(trifluoromethyl)-1,2,4-oxadiazol-3-yl]phenyl]methyl]piperazine-1-carboxamide] registered a melting point of 138 to 141 °C. This compound also registered a pest or weed control at 200 ppm in data set [1] of no less than 80%. In data set [2], this compound gave a pest or weed control at 200 ppm of no less than 80%. The inhibition of growth at 20 ppm in data set [3] was no less than 80%. The compound further gave a pest or weed control at 200 ppm in the data set on Phakopsora pachyrhizi of no less than 80%.

Compound `O=C1CCON1Cc1ccc(-c2noc(C(F)(F)F)n2)c(F)c1` [Compound A-68, 2-[[3-fluoro-4-[5-(trifluoromethyl)-1,2,4-oxadiazol-3-yl]phenyl]methyl]isoxazolidin-3-one] yielded a melting point of 86 to 89 °C. In data set [1], this compound returned a pest or weed control at 200 ppm of no less than 80%. In addition, in data set [2], the pest or weed control at 200 ppm is no less than 80%. The compound further registered an inhibition of growth at 20 ppm in data set [3] of no less than 80%. Also, the pest or weed control at 200 ppm with Phakopsora pachyrhizi was no less than 80%.

`O=S1(=O)CCCN1Cc1ccc(-c2noc(C(F)(F)F)n2)cc1` [Compound B-1, 2-[[4-[5-(trifluoromethyl)-1,2,4-oxadiazol-3-yl]phenyl]methyl]-1,2-thiazolidine 1,1-dioxide] came in with a melting point of 69 to 73 °C. Also, in data set [1], the pest or weed control at 200 ppm was no less than 80%. The same compound displayed a pest or weed control at 200 ppm in data set [2] of no less than 80%. In data set [3], this compound had an inhibition of growth at 20 ppm of no less than 80%. This compound also showed a pest or weed control at 200 ppm in the data set on Phakopsora pachyrhizi of no less than 80%.

`O=C1CCCN1c1ccc(-c2noc(C(F)(F)F)n2)cc1` [Compound C-1, 1-[4-[5-(trifluoromethyl)-1,2,4-oxadiazol-3-yl]phenyl]pyrrolidin-2-one] returned a melting point of 151 to 153 °C. In data set [1], the pest or weed control at 200 ppm is no less than 80%. This compound also gave a pest or weed control at 200 ppm in data set [2] of no less than 80%. In data set [3], this compound returned an inhibition of growth at 20 ppm of no less than 80%. The same compound registered a pest or weed control at 200 ppm in the data set on Phakopsora pachyrhizi of no less than 80%.

`O=C1CCON1c1ccc(-c2noc(C(F)(F)F)n2)cc1` [Compound C-2, 2-[4-[5-(trifluoromethyl)-1,2,4-oxadiazol-3-yl]phenyl]isoxazolidin-3-one] displayed a melting point of 74 to 77 °C. In addition, the pest or weed control at 200 ppm in data set [1] was no less than 80%. This compound returned a pest or weed control at 200 ppm in data set [2] of no less than 80%. In data set [3], this compound registered an inhibition of growth at 20 ppm of no less than 80%. The pest or weed control at 200 ppm in the data set on Phakopsora pachyrhizi was no less than 80%.

The term pest or weed control denotes the degree to which the test organism was suppressed or injured, in per cent. The low end stands for a weak effect, the high end for a strong effect. Broadly, the melting point is the temperature, or range, at which the solid turns liquid. Usually inhibition of growth stands for the relative decrease from the control value, in per cent. Higher therefore signals a strong effect.
